Results reported in the NIST ThermoML archive (doi:10.1016/j.fluid.2007.05.029).
Numbers after ± are expanded uncertainties.

What was measured:
[1] = xn = mol fraction of the nth substance listed

CCCCC(O)CO (stereo not drawn) [1,2-hexanediol]
Conditions	surface tension liquid-gas [mN/m]
283.15 K	24.7 ± 0.8
288.15 K	24.4 ± 0.8
293.15 K	24.1 ± 0.8
298.15 K	23.8 ± 0.8
303.15 K	23.6 ± 0.8
308.15 K	23.3 ± 0.8

CCCCC(O)CO (stereo not drawn) [1,2-hexanediol] + O
surface tension liquid-gas [mN/m], [1]
Conditions	283.15 K	288.15 K	293.15 K	298.15 K	303.15 K	308.15 K
x1 = 0.001	55.1 ± 1	54.5 ± 1	54.3 ± 1	53.8 ± 1	53.3 ± 1	52.7 ± 0.9
x1 = 0.0016	47.5 ± 0.9	47.3 ± 0.9	47 ± 0.9	46.6 ± 0.9	46.3 ± 0.9	45.6 ± 0.9
x1 = 0.002	45.1 ± 0.9	44.5 ± 0.9	43.9 ± 0.9	43.4 ± 0.9	42.8 ± 0.9	42.3 ± 0.9
x1 = 0.0034	41.6 ± 0.9	40.6 ± 0.9	40 ± 0.9	39.3 ± 0.9	38.5 ± 0.9	38.1 ± 0.9
x1 = 0.0052	37.3 ± 0.9	36.3 ± 0.8	35.5 ± 0.8	34.7 ± 0.8	33.8 ± 0.8	33 ± 0.8
x1 = 0.0077	32.2 ± 0.8	31.4 ± 0.8	30.8 ± 0.8	30 ± 0.8	29.5 ± 0.8	28.9 ± 0.8
x1 = 0.0108	28.7 ± 0.8	28.1 ± 0.8	27.7 ± 0.8	27.2 ± 0.8	26.8 ± 0.8	26.4 ± 0.8
x1 = 0.014	27.6 ± 0.8	26.9 ± 0.8	26.3 ± 0.8	25.7 ± 0.8	25.2 ± 0.8	24.8 ± 0.8
x1 = 0.0175	26.4 ± 0.8	25.9 ± 0.8	25.7 ± 0.8	25.3 ± 0.8	24.8 ± 0.8	24.4 ± 0.8
x1 = 0.0251	26.2 ± 0.8	25.9 ± 0.8	25.5 ± 0.8	25.2 ± 0.8	25 ± 0.8	24.7 ± 0.8
x1 = 0.036	25.7 ± 0.8	25.5 ± 0.8	25.2 ± 0.8	25 ± 0.8	24.7 ± 0.8	24.5 ± 0.8
x1 = 0.046	25.7 ± 0.8	25.4 ± 0.8	25.2 ± 0.8	24.9 ± 0.8	24.7 ± 0.8	24.4 ± 0.8
x1 = 0.0514	25.7 ± 0.8	25.4 ± 0.8	25.2 ± 0.8	24.9 ± 0.8	24.7 ± 0.8	24.4 ± 0.8
x1 = 0.0655	25.6 ± 0.8	25.4 ± 0.8	25.1 ± 0.8	24.9 ± 0.8	24.4 ± 0.8	24.1 ± 0.8
x1 = 0.0831	25.6 ± 0.8	25.3 ± 0.8	25.1 ± 0.8	24.8 ± 0.8	24.5 ± 0.8	24.1 ± 0.8
x1 = 0.0968	25.1 ± 0.8	24.9 ± 0.8	24.6 ± 0.8	24.4 ± 0.8	24.3 ± 0.8	24 ± 0.8
x1 = 0.1119	24.9 ± 0.8	24.7 ± 0.8	24.4 ± 0.8	24.1 ± 0.8	23.9 ± 0.8	23.6 ± 0.8
x1 = 1	24.7 ± 0.8	24.4 ± 0.8	24.1 ± 0.8	23.8 ± 0.8	23.6 ± 0.8	23.3 ± 0.8

CC(O)CCCCO (stereo not drawn) [1,5-hexanediol]
Conditions	surface tension liquid-gas [mN/m]
283.15 K	34.6 ± 0.9
288.15 K	34.3 ± 0.8
293.15 K	34.1 ± 0.8
298.15 K	33.9 ± 0.8
303.15 K	33.7 ± 0.8
308.15 K	33.5 ± 0.8

CC(O)CCCCO (stereo not drawn) [1,5-hexanediol] + O
surface tension liquid-gas [mN/m], [1]
Conditions	283.15 K	288.15 K	293.15 K	298.15 K	303.15 K	308.15 K
x1 = 0.001	65.3 ± 1	65 ± 1	63.8 ± 1	62.8 ± 1	62.3 ± 1	61.2 ± 1
x1 = 0.0021	58.3 ± 1	57.6 ± 1	56.9 ± 1	56.1 ± 1	55.7 ± 1	55 ± 1
x1 = 0.0037	55.3 ± 1	54.7 ± 1	54.2 ± 1	53.6 ± 1	52.9 ± 0.9	52.4 ± 0.9
x1 = 0.0053	53 ± 0.9	52.5 ± 0.9	51.7 ± 0.9	51.2 ± 0.9	50.6 ± 0.9	50.3 ± 0.9
x1 = 0.0071	51 ± 0.9	50.4 ± 0.9	49.9 ± 0.9	49.3 ± 0.9	48.8 ± 0.9	48.5 ± 0.9
x1 = 0.0089	50 ± 0.9	49.2 ± 0.9	48.6 ± 0.9	47.9 ± 0.9	47.3 ± 0.9	47 ± 0.9
x1 = 0.0111	47.5 ± 0.9	46.7 ± 0.9	46.4 ± 0.9	46 ± 0.9	45.7 ± 0.9	45 ± 0.9
x1 = 0.0145	45.3 ± 0.9	44.7 ± 0.9	44.5 ± 0.9	43.8 ± 0.9	43.4 ± 0.9	42.9 ± 0.9
x1 = 0.0194	43 ± 0.9	42.2 ± 0.9	41.3 ± 0.9	40.3 ± 0.9	39.8 ± 0.9	38.6 ± 0.9
x1 = 0.0324	39.7 ± 0.9	39.1 ± 0.9	38.6 ± 0.9	38 ± 0.9	37.5 ± 0.9	37 ± 0.8
x1 = 0.0507	38 ± 0.9	37.3 ± 0.9	36.9 ± 0.8	36.6 ± 0.8	35.7 ± 0.8	35 ± 0.8
x1 = 0.0738	36.9 ± 0.8	36.5 ± 0.8	36.1 ± 0.8	35.8 ± 0.8	34.9 ± 0.8	34.4 ± 0.8
x1 = 1	34.6 ± 0.9	34.3 ± 0.8	34.1 ± 0.8	33.9 ± 0.8	33.7 ± 0.8	33.5 ± 0.8
